Values of other authors in patent US4083974A, “Topical steroidal anti-inflammatory preparations containing polyoxypropylene 15 stearyl ether” (The Upjohn Company, priority 1977, dated 1978).

How the values were obtained:
[1] = known property of the prior-art solvent
[2] = known property from the art
bacterial = conditions: prior art; composition contains approximately 15% ethyl alcohol

For `CC(O)CO` (stereo not drawn) [Propylene glycol, propylene glycol], the “irritation to the skin” value [1] is listed as “irritating to the skin” and the lubricant properties [2] is listed as “non-lubricant”.

For `CCO` [ethyl alcohol], the anti-bacterial activity (bacterial) is given as “known anti-bacterial agent”.
